Consider 22 molecules from PubChem BioAssay (NCI).

Each structure is given as a SMILES string.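 Step 1: Grow cells in 96-well plates. Step 2: Expose to compound for 48 hours at 5 concentrations. Step 3: Interpolate endpoints linearly; if unreached, use highest concentration. At the GI50, growth is halved. TGI denotes the concentration required for complete inhibition of growth.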

The first test relates to DU-145 prostate. As to the kind of experiment: NCI-60 cell line screen, 48 h.
As for `CC#CC(O)(C(=O)OC1CC(C)N(C)C(C)(C)C1)C1CCCC1` (stereo not drawn), the TGI is more than 100 µM.

On to `CC1(C)OC2COC3([C@@H]4OC(C)(C)O[C@@H]4CO)OC(C)(C)OC3C2O1` (stereo partly drawn), for which the TGI is more than 100 µM.

With `COc1cc(/C=C2\CCC(C)/C(=C\c3cc(OC)c(OC)c(OC)c3)C2=O)cc(OC)c1OC` (stereo not drawn), the TGI was more than 100 µM.

Molecule `COC(=O)[C@H](Cc1ccccc1)NC(=O)N(CCC#N)CCN(C(=O)N[C@@H](Cc1ccccc1)C(=O)OC)c1ccccc1` registered a TGI of 74.5 µM.

In turn, `Nc1nc(Nc2ccccc2)sc1C(=O)c1ccco1` showed a TGI of 40.8 µM.

The molecule `Cc1cc(NS(=O)(=O)c2ccc(NC(NC(=O)C(C(F)(F)F)C(F)(F)F)(C(F)(F)F)C(F)(F)F)cc2)no1` showed a TGI of more than 100 µM.

In turn, `C/C(=N\Nc1nc2ccccc2s1)c1ccc2ccccc2n1` registered a TGI of more than 100 µM.

Turning to `O=[N+]([O-])/C(Cl)=C(\NCCN/C(C(Cl)=C(Cl)Cl)=C(/Cl)[N+](=O)[O-])C(Cl)=C(Cl)Cl`, the TGI is more than 100 µM.

`CC1(C)CC(C#Cc2ccccc2)CC(C)(C)N1O` registered a TGI of 41.9 µM.

`CCNc1ncnc2sc(SCc3ccccc3)nc12` gave a TGI of more than 100 µM.

Consider `CC1(C)N=C2C(=O)c3c([nH]c4ccccc34)[C@]3(C)CCC1CC23` (stereo partly drawn), for which the TGI was more than 6.25 µM.

As to `CCN1C(=O)C(=C/C=C/c2ccc(N(CC)CC)cc2)C(=O)N(CC)C1=S`, the TGI is more than 100 µM.

Consider `COc1ccc(NC(C)c2ccncc2)cc1` (stereo not drawn), for which the TGI is more than 100 µM.

The molecule `C/C(=C\CO)CC/C=C(\C)CNc1ccc([N+](=O)[O-])cc1` returned a TGI of more than 100 µM.

`CC(=O)Oc1c(C)c(C)c2c(c1C)CCC(C)(CC(=O)OCCCCCCCCCCC[P+](c1ccccc1)(c1ccccc1)c1ccccc1)O2` (stereo not drawn): the GI50 is 384 nM and the TGI is 1.34 µM.

`CC(C)=CCC[C@@H](C)C1=C(O)C(N)=C(C)C(=O)C1=O` gave a TGI of more than 100 µM.

For `c1ccc(C2CC(=NC3CCCCC3)Nc3ccccc3N2)cc1` (stereo not drawn), the TGI is more than 100 µM.

The test system of the next test is MDA-MB-435. Nature of the test: NCI-60 cell line screen, 48 h.
`COc1cc2[nH]c(-c3ccccc3)cc(=O)c2c(OC)c1OC` gave a TGI of more than 100 µM.

In the case of `CCOP(=O)(OCC)OC1CC(n2cc(C)c(=O)n(C)c2=O)OC1CO[Si](C)(C)C(C)(C)C` (stereo not drawn), the TGI was more than 100 µM.

As to `COc1ccc(N2C(=O)C3c4[nH]c5ccccc5c4C4CCCCCCCCCC4C3C2=O)cc1` (stereo not drawn), the TGI is more than 10 µM.

Consider `COc1cccc2c1OCC1Cc3ccccc3OC21` (stereo not drawn), for which the TGI turned out to be 75.3 µM.

For the molecule `CC(C)C(N)C(=O)NC(CCC(=O)NCCCCC(N)C(=O)NCCCNc1ccc([N+](=O)[O-])c2[nH]c3ccccc3c(=O)c12)C(N)=O` (stereo not drawn), the TGI is more than 100 µM.

With `CC#CC(O)(C(=O)OC1CC(C)N(C)C(C)(C)C1)C1CCCC1` (stereo not drawn), the TGI was more than 100 µM.

`CC1(C)OC2COC3([C@@H]4OC(C)(C)O[C@@H]4CO)OC(C)(C)OC3C2O1` (stereo partly drawn) showed a TGI of more than 100 µM.

Regarding `COc1cc(/C=C2\CCC(C)/C(=C\c3cc(OC)c(OC)c(OC)c3)C2=O)cc(OC)c1OC` (stereo not drawn), the TGI is more than 100 µM.

In turn, `COC(=O)[C@H](Cc1ccccc1)NC(=O)N(CCC#N)CCN(C(=O)N[C@@H](Cc1ccccc1)C(=O)OC)c1ccccc1` had a TGI of 39.2 µM.

As to `Nc1nc(Nc2ccccc2)sc1C(=O)c1ccco1`, the TGI was found to be 31.5 µM.

On to `Cc1cc(NS(=O)(=O)c2ccc(NC(NC(=O)C(C(F)(F)F)C(F)(F)F)(C(F)(F)F)C(F)(F)F)cc2)no1`, for which the TGI is more than 100 µM.

`C/C(=N\Nc1nc2ccccc2s1)c1ccc2ccccc2n1`: the TGI is more than 100 µM.

`O=[N+]([O-])/C(Cl)=C(\NCCN/C(C(Cl)=C(Cl)Cl)=C(/Cl)[N+](=O)[O-])C(Cl)=C(Cl)Cl` registered a TGI of more than 100 µM.

Molecule `CC1(C)CC(C#Cc2ccccc2)CC(C)(C)N1O` came in with a TGI of 44.6 µM.

Molecule `CCNc1ncnc2sc(SCc3ccccc3)nc12` gave a TGI of more than 100 µM.

For `CC1(C)N=C2C(=O)c3c([nH]c4ccccc34)[C@]3(C)CCC1CC23` (stereo partly drawn), the TGI was more than 6.25 µM.

Regarding `CCN1C(=O)C(=C/C=C/c2ccc(N(CC)CC)cc2)C(=O)N(CC)C1=S`, the TGI is more than 100 µM.

For `COc1ccc(NC(C)c2ccncc2)cc1` (stereo not drawn), the TGI is more than 100 µM.

`C/C(=C\CO)CC/C=C(\C)CNc1ccc([N+](=O)[O-])cc1` registered a TGI of 84.9 µM.

Regarding `CC(=O)Oc1c(C)c(C)c2c(c1C)CCC(C)(CC(=O)OCCCCCCCCCCC[P+](c1ccccc1)(c1ccccc1)c1ccccc1)O2` (stereo not drawn), the GI50 is 310 nM and the TGI amounted to 1.2 µM.

For the molecule `CC(C)=CCC[C@@H](C)C1=C(O)C(N)=C(C)C(=O)C1=O`, the TGI is more than 100 µM.

`c1ccc(C2CC(=NC3CCCCC3)Nc3ccccc3N2)cc1` (stereo not drawn) had a TGI of more than 100 µM.

Another test deals with HOP-92 NSCLC. Nature of the test: NCI-60 cell line screen, 48 h.
The molecule `CC(C)C(N)C(=O)NC(CCC(=O)NCCCCC(N)C(=O)NCCCNc1ccc([N+](=O)[O-])c2[nH]c3ccccc3c(=O)c12)C(N)=O` (stereo not drawn) yielded a TGI of more than 100 µM.

The molecule `CC1(C)OC2COC3([C@@H]4OC(C)(C)O[C@@H]4CO)OC(C)(C)OC3C2O1` (stereo partly drawn) returned a TGI of more than 100 µM.

In turn, `COc1cc(/C=C2\CCC(C)/C(=C\c3cc(OC)c(OC)c(OC)c3)C2=O)cc(OC)c1OC` (stereo not drawn) registered a TGI of more than 100 µM.

With `COC(=O)[C@H](Cc1ccccc1)NC(=O)N(CCC#N)CCN(C(=O)N[C@@H](Cc1ccccc1)C(=O)OC)c1ccccc1`, the TGI was found to be 39.4 µM.

In the case of `Nc1nc(Nc2ccccc2)sc1C(=O)c1ccco1`, the TGI came to 82.6 µM.

As for `Cc1cc(NS(=O)(=O)c2ccc(NC(NC(=O)C(C(F)(F)F)C(F)(F)F)(C(F)(F)F)C(F)(F)F)cc2)no1`, the TGI is more than 100 µM.

`O=[N+]([O-])/C(Cl)=C(\NCCN/C(C(Cl)=C(Cl)Cl)=C(/Cl)[N+](=O)[O-])C(Cl)=C(Cl)Cl` had a TGI of 53.9 µM.
